Test results published in the supplement of paper PMC10307832.

How the values were obtained:
Assay in all cases: relative viability (nuclei count vs DMSO), 5 days (fraction); higher = more cells survive
[1] = compound: C#Cc1cccc(Nc2ncnc3cc(OC)c(OCCCCCCC(=O)NO)cc23)c1 [CUDC-101] + N=C(N)NC(=N)NCCc1ccccc1 [Phenformin] (partner 250 µM)
Outline: (§1)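 Dosing by pin tool came one day after lung cancer cell lines were seeded in 1536-well plates, using either one drug or a fixed anchor-drug dose plus five library-drug doses (not always all listed) in √10 steps. After 5 days, nuclei were counted on 4× images. Relative viability is treated-well nuclei count divided by vehicle-well nuclei count, and values are medians of duplicate plates.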

[2] = compound: COc1cc2/c(=N/c3ccc(Br)cc3F)nc[nH]c2cc1OCC1CCN(C)CC1 [Vandetanib] + CC(=O)c1c(C)c2cnc(Nc3ccc(N4CCNCC4)cn3)nc2n(C2CCCC2)c1=O [Palbociclib] (partner 0.5 µM)
Outline: as §1

[3] = compound: C#Cc1cccc(Nc2ncnc3cc(OC)c(OCCCCCCC(=O)NO)cc23)c1 [CUDC-101] + CCNC(=O)c1noc(-c2cc(C(C)C)c(O)cc2O)c1-c1ccc(CN2CCOCC2)cc1 [Luminespib] (partner 0.01 µM)
Outline: as §1

[4] = compound: COc1cc2/c(=N/c3ccc(Br)cc3F)nc[nH]c2cc1OCC1CCN(C)CC1 [Vandetanib] + Cc1nc(Nc2ncc(C(=O)Nc3c(C)cccc3Cl)s2)cc(N2CCN(CCO)CC2)n1 [Dasatinib] (partner 0.075 µM)
Outline: as §1

Row | Cell Line | relative viability ([1]; first compound 0.01 µM) | relative viability ([1]; first compound 0.03162 µM) | relative viability ([1]; first compound 0.1 µM) | relative viability ([1]; first compound 0.3162 µM) | relative viability ([1]; first compound 1 µM) | relative viability ([2]; first compound 0.02 µM) | relative viability ([2]; first compound 0.06325 µM) | relative viability ([2]; first compound 0.2 µM) | relative viability ([2]; first compound 0.6325 µM) | relative viability ([2]; first compound 2 µM) | relative viability ([3]; first compound 0.01 µM) | relative viability ([3]; first compound 0.03162 µM) | relative viability ([3]; first compound 0.1 µM) | relative viability ([3]; first compound 0.3162 µM) | relative viability ([3]; first compound 1 µM) | relative viability ([4]; first compound 0.02 µM) | relative viability ([4]; first compound 0.06325 µM) | relative viability ([4]; first compound 0.2 µM) | relative viability ([4]; first compound 0.6325 µM) | relative viability ([4]; first compound 2 µM)
1 | NCI-H460 | 0.528 | 0.501 | 0.554 | 0.526 | 0.486 | 0.147 | 0.157 | 0.189 | 0.148 | 0.166 | 0.0424 | 0.0301 | 0.0366 | 0.0315 | 0.0288 | 0.366 | 0.536 | 0.48 | 0.36 | 0.482
2 | NCI-H520 | 0.55 | 0.494 | 0.576 | 0.581 | 0.247 | 0.254 | 0.196 | 0.293 | 0.273 | 0.256 | 0.241 | 0.221 | 0.208 | 0.204 | 0.245 | 0.139 | 0.228 | 0.218 | 0.191 | 0.225
3 | NCI-H522 | 0.677 | 0.688 | 0.777 | 0.744 | 0.572 | 0.89 | 0.909 | 1.14 | 0.961 | 0.986 | 1.18 | 1.19 | 1.03 | 1.66 | 0.686 | 0.849 | 0.724 | 0.885 | 0.808 | 0.821
4 | NCI-H647 | 0.564 | 0.483 | 0.574 | 0.418 | 0.21 | 0.402 | 0.385 | 0.384 | 0.358 | 0.381 | 0.188 | 0.266 | 0.147 | 0.195 | 0.238 | 0.151 | 0.207 | 0.175 | 0.178 | 0.198
5 | NCI-H650 | 0.453 | 0.475 | 0.465 | 0.385 | 0.38 | 0.358 | 0.317 | 0.366 | 0.323 | 0.291 | 0.959 | 0.688 | 0.912 | 0.957 | 0.619 | 0.425 | 0.511 | – | 0.433 | 0.365
6 | NCI-H661 | 0.284 | 0.291 | 0.291 | 0.311 | 0.246 | 0.4 | 0.411 | 0.433 | 0.458 | 0.392 | 0.985 | 0.975 | 0.876 | 0.835 | 0.674 | 0.988 | 0.856 | 0.837 | 0.803 | 0.874
7 | NCI-H727 | 0.591 | 0.476 | 0.297 | 0.604 | 0.362 | 0.622 | 0.692 | 0.679 | 0.578 | 0.56 | 0.399 | 0.392 | 0.558 | 0.342 | 0.396 | 0.403 | 0.408 | 0.317 | 0.318 | 0.329
8 | NCI-H838 | 0.64 | 0.564 | 0.696 | 0.712 | 0.404 | 0.219 | 0.227 | 0.243 | 0.216 | 0.219 | 0.302 | 0.248 | 0.228 | 0.251 | 0.218 | 0.278 | 0.286 | 0.341 | 0.29 | 0.27
